From US8691855B2, “Compounds, isomer thereof, or pharmaceutically acceptable salts thereof as vanilloid receptor antagonist and pharmaceutical compositions containing the same” (Amorepacific Corporation, priority 2008, dated 2014)

target: T1, vanilloid receptor (Rattus norvegicus, UniProt O35433); test: 45Ca influx test (antagonist calcium uptake test) in rat DRG neurons stimulated with capsaicin; assay type: cell-based; conditions: DRG neuron; @1 μM; neonatal SD rat DRG neurons; capsaicin 0.5 μM; read-out: Antagonist Calcium Uptake Test, percent inhibition of capsaicin response
T1 construct: DRG nerve cells from the primary culture of 2 days were equilibrated; endogenous in cells; host or cells: primary culture of dorsal root ganglion neurons from neonatal SD rats
T1 sequence (O35433 whole entry): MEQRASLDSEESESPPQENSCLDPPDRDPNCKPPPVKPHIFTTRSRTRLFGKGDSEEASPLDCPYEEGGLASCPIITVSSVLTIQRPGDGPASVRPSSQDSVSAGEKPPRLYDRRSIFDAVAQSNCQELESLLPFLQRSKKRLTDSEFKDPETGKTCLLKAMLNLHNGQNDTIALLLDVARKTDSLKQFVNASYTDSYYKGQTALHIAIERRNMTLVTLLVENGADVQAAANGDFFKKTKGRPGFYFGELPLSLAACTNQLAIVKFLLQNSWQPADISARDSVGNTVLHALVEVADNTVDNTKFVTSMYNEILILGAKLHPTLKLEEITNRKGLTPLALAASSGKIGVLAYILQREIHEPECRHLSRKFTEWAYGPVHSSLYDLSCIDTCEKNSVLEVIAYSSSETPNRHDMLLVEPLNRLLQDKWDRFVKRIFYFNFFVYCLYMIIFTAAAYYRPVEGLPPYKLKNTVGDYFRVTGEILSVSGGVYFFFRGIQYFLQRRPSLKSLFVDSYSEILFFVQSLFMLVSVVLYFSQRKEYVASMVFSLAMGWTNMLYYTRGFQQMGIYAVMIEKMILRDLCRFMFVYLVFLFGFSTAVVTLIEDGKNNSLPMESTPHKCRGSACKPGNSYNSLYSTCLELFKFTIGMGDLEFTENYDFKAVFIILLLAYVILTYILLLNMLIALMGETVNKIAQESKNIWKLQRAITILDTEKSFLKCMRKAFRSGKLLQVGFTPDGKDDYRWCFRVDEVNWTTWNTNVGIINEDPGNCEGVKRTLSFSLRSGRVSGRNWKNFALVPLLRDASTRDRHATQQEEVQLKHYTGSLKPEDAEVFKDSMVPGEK
Procedure: 1) Separation of spinal dorsal root ganglia (DRG) in newborn rats and primary culture thereof
Neonatal (2-3 clay old or younger than 2-3 day old) SD rats were put in ice for 5 minutes to anesthetize and disinfected with 70% ethanol. DRG of all part of spinal cord were dissected (Wood et al., 1988, J. Neurosci. 8, pp 3208-3220) and collected in DME/F12 medium to which 1.2 g/l sodium bicarbonate and 50 mg/l gentamycin were added. The DRG were incubated sequentially at 37° C. for 30 mins in 200 U/ml collagenase and 2.5 mg/ml trypsin, separately. The ganglia were washed twice with DME/F12 medium supplemented with 10% horse serum, triturated through a fire-polished Pasteur pipette, filtered through Nitex 80 membrane to obtain single cell suspension and the suspension was washed once more. This was subjected to centrifugation, then resuspended in cell culture medium at certain level of cell density. As the cell culture medium, DME/F12 medium supplemented with 10% horse serum was diluted with identical medium conditioned by C6 glioma cells 2 clays on a confluent monolayer (1:1), and NGF (Nerve Growth Factor) was added to adjust 200 ng/ml as final concentration. After the cells were grown 2 days in medium where cytosine arabinoside (Ara-C, 100 μM) was added to kill dividing nonneuronal cells, medium was changed to one without Ara-C. The resuspended cells were plated at a density of 1500-2000 neurons/well onto Terasaki plates previously coated with 10 μg/ml poly-D-ornithine.
2) ^45Ca Influx Experiments
DRG nerve cells from the primary culture of 2 days were equilibrated by washing 4 times with HEPES (10 mM, pH 7.4)-buffered Ca^2+, Mg^2+-free HBSS (H-HBSS). The solution in each well was removed from the individual well. Medium containing the test compound plus capsaicin (final concentration 0.5 μM) and ^45Ca (final concentration 10 μCi/ml) in H-HBSS was added to each well and incubated at room temperature for 10 nuns. Terasaki plates were washed five times with H-HBSS and dried at room temperature. To each well, 0.3% SDS (10 μl) was added to elute ^45Ca. After the addition of scintillation cocktail of into each well, the amount of ^45Ca influx into neuron was measured by counting radioactivity. Antagonistic activities of test compounds against vanilloid receptor were calculated as percent of the inhibition of maximal response of capsaicin at a concentration of 0.5 μM.

Row | Compound | inhibition at 1 µM [%]
1 | C[C@@H](NC(=O)c1coc(Oc2cccc3c2CCCC3)n1)c1cc(F)c(NS(C)(=O)=O)c(F)c1 (stereo in doubt) [Example 55, 2-(5,6,7,8-Tetrahydro-naphthalen-1-yloxy)-oxazole-4-carboxylic acid [1-(3,5-difluoro-4-methanesulfonylamino-phenyl)-ethyl]-amide] | 74

same assay, conditions: DRG neuron; @10 μM; neonatal SD rat DRG neurons; capsaicin 0.5 μM; read-out: Antagonist Calcium Uptake Test, percent inhibition of capsaicin response

Row | Compound | inhibition at 10 µM [%]
2 | C[C@@H](NC(=O)c1csc(Cc2cccc(C(F)(F)F)c2)n1)c1cc(F)c(NS(C)(=O)=O)c(F)c1 (stereo in doubt) [Example 20, 2-(3-Trifluoromethyl-benzyl)-thiazole-4-carboxylic acid [1-(3,5-difluoro-4-methanesulfonylamino-phenyl)-ethyl]-amide] | 67

same assay, conditions: neonatal SD rat DRG neurons; capsaicin 0.5 μM; 45Ca

Row | Compound | IC50 [µM]
3 | C[C@@H](NC(=O)c1coc(Oc2cccc3c2OC(C)(C)C3)n1)c1cc(F)c(NS(C)(=O)=O)c(F)c1 (stereo in doubt) [Example 34, 2-(2,2-Dimethyl-2,3-dihydro-benzofuran-7-yloxy)-oxazole-4-carboxylic acid [1-(3,5-difluoro-4-methanesulfonylamino-phenyl)-ethyl]-amide] | 0.4
4 | C[C@@H](NC(=O)c1coc(Oc2cccc3c2CCC3C(F)(F)F)n1)c1cc(F)c(NS(C)(=O)=O)c(F)c1 (stereo in doubt) [Example 57, 2-(1-Trifluoromethyl-indan-4-yloxy)-oxazole-4-carboxylic acid [1-(3,5-difluoro-4-methanesulfonylamino-phenyl)-ethyl]-amide] | 0.33
5 | COc1cccc(-c2nc(C(=O)N[C@H](C)c3cc(F)c(NS(C)(=O)=O)c(F)c3)co2)c1 (stereo in doubt) [Example 68, 2-(3-Methoxy-phenyl)-oxazole-4-carboxylic acid [1-(3,5-difluoro-4-methanesulfonylamino-phenyl)-ethyl]-amide] | 1.7
6 | C[C@@H](NC(=O)c1ccc(-c2cccc(C(F)(F)F)c2)s1)c1cc(F)c(NS(C)(=O)=O)c(F)c1 (stereo in doubt) [Example 73, 5-(3-Trifluoromethyl-phenyl)-thiophene-2-carboxylic acid [1-(3,5-difluoro-4-methanesulfonylamino-phenyl)-ethyl]-amide] | 10.5
7 | C[C@@H](NC(=O)c1coc(-c2cccc(C(F)(F)F)c2F)n1)c1cc(F)c(NS(C)(=O)=O)c(F)c1 (stereo in doubt) [Example 79, 2-(2-Fluoro-3-trifluoromethyl-phenyl)-oxazole-4-carboxylic acid [1-(3,5-difluoro-4-methanesulfonylamino-phenyl)-ethyl]-amide] | 0.99
8 | C[C@@H](NC(=O)c1coc(-c2ccccc2Cl)n1)c1cc(F)c(NS(C)(=O)=O)c(F)c1 (stereo in doubt) [Example 84, 2-(2-Chloro-phenyl)-oxazole-4-carboxylic acid [1-(3,5-difluoro-4-methanesulfonylamino-phenyl)-ethyl]-amide] | 7.4
9 | COc1ccc(-c2nc(C(=O)N[C@H](C)c3cc(F)c(NS(C)(=O)=O)c(F)c3)co2)cc1C(F)(F)F (stereo in doubt) [Example 96, 2-(4-Methoxy-3-trifluoromethyl-phenyl)-oxazole-4-carboxylic acid [1-(3,5-difluoro-4-methanesulfonylamino-phenyl)-ethyl]-amide] | 1.3
10 | C[C@@H](NC(=O)c1csc(-c2cc(C3CC3)cc(C3CC3)c2)n1)c1cc(F)c(NS(C)(=O)=O)c(F)c1 (stereo in doubt) [Example 107, 2-(3,5-Dicyclopropyl-phenyl)-thiazole-4-carboxylic acid [1-(3,5-difluoro-4-methanesulfonylamino-phenyl)-ethyl]-amide] | 3
11 | CC(C)c1ccccc1Oc1nc(C(=O)N[C@H](C)c2cc(F)c(NS(C)(=O)=O)c(F)c2)co1 [Example 3, 2-(2-Isopropyl-phenoxy)-oxazole-4-carboxylic acid [1-(3,5-difluoro-4-methanesulfonylamino-phenyl)-ethyl]-amide] | 0.49
12 | CC(C)c1ccc(Oc2nc(C(=O)N[C@H](C)c3cc(F)c(NS(C)(=O)=O)c(F)c3)co2)cc1 [Example 5, 2-(4-Isopropyl-phenoxy)-oxazole-4-carboxylic acid [1-(3,5-difluoro-4-methanesulfonylamino-phenyl)-ethyl]-amide] | 3.6
13 | C[C@@H](NC(=O)c1coc(Oc2ccc(C(F)(F)F)cc2)n1)c1cc(F)c(NS(C)(=O)=O)c(F)c1 [Example 6, 2-(4-Trifluoromethyl-phenoxy)-oxazole-4-carboxylic acid [1-(3,5-difluoro-4-methanesulfonylamino-phenyl)-ethyl]-amide] | 5
14 | C[C@@H](NC(=O)c1coc(Oc2ccc(C(C)(C)C)cc2)n1)c1cc(F)c(NS(C)(=O)=O)c(F)c1 [Example 7, 2-(4-tert-Butyl-phenoxy)-oxazole-4-carboxylic acid [1-(3,5-difluoro-4-methanesulfonylamino-phenyl)-ethyl]-amide] | 4.3
15 | CCN(CC)c1cccc(Oc2nc(C(=O)N[C@H](C)c3cc(F)c(NS(C)(=O)=O)c(F)c3)co2)c1 [Example 8, 2-(3-Diethylamino-phenoxy)-oxazole-4-carboxylic acid [1-(3,5-difluoro-4-methanesulfonylamino-phenyl)-ethyl]-amide] | 2.7
16 | CC(C)c1cccc(Oc2nc(C(=O)NCc3cc(F)c(NS(C)(=O)=O)c(F)c3)co2)c1 [Example 9, 2-(3-Isopropyl-phenoxy)-oxazole-4-carboxylic acid 3,5-difluoro-4-methanesulfonylamino-benzylamide] | 0.44
17 | C[C@@H](NC(=O)c1csc(Cc2ccc(C(C)(C)C)cc2)n1)c1cc(F)c(NS(C)(=O)=O)c(F)c1 [Example 10, (R)—N-[1-(3,5-Difluoro-4-methanesulfonylamino-phenyl)-ethyl]-2-(4-t-butylbenzyl)-thiazole-4-amide] | 6.4
18 | C[C@@H](NC(=O)c1csc(Cc2ccc(F)c(F)c2)n1)c1cc(F)c(NS(C)(=O)=O)c(F)c1 [Example 11, (R)—N-[1-(3,5-Difluoro-4-methanesulfonylamino-phenyl)-ethyl]-2-(3,4-difluorobenzyl)-thiazole-4-amide] | > 10
19 | CS(=O)(=O)Nc1c(F)cc(CNC(=O)c2csc(Cc3ccc(F)c(F)c3)n2)cc1F [Example 12, N-[1-(3,5-Difluoro-4-methanesulfonylamino)-benzyl]-2-(3,4-difluorobenzyl)-thiazole-4-amide] | > 10
20 | C[C@@H](NC(=O)c1coc(NCC2CCCCC2)n1)c1cc(F)c(NS(C)(=O)=O)c(F)c1 [Example 13, 2-(Cyclohexylmethyl-amino)-oxazole-4-carboxylic acid [1-(3,5-difluoro-4-methanesulfonylamino-phenyl)-ethyl]-amide] | 1.4
21 | CS(=O)(=O)Nc1c(F)cc(CNC(=O)c2csc(Oc3ccc(C(F)(F)F)cc3)n2)cc1F [Example 14, 2-(4-Trifluoromethyl-phenoxy)-thiazole-4-carboxylic acid 3,5-difluoro-4-methanesulfonylamino-benzylamide] | 1.5
22 | C[C@@H](NC(=O)c1coc(Oc2cccc(Br)c2)n1)c1cc(F)c(NS(C)(=O)=O)c(F)c1 [Example 15, 2-(3-Bromo-phenoxy)-oxazole-4-carboxylic acid [1-(3,5-difluoro-4-methanesulfonylamino-phenyl)-ethyl]-amide] | 0.6
